Assay results as given in patent publication US8535696B2, “Treating eczema and/or psoriasis” (Lypanosys Pte Limited, priority 2000, dated 2013).

Assays:
[1] = Trials with patients using dosage forms of cetyl myristate alone or with cetyl palmitate; type: in vivo, human; conditions: variety of patients, cetyl myristate alone
[2] = laboratory experiments, www.gcinutrients.com; cited from earlier work

For CCCCCCCCCCCCCCCCOC(=O)CCCCCCCCCCCCC [cetyl myristate], the “relief from the symptoms of IBS and/or IBD” value [1] is listed as “favourable responses” and the anti-arthritic activity [2] is listed as “negligible”.
